For data set [1], the system named is skin. The experiment in a line: skin irritation on wear of patch with nicotinate enhancer. It is filed as in vivo. As to conditions: benzylnicotinate substituted for methylnicotinate in the patch enhancer system. An excerpt: (§1) Permeation enhancers identified as useful for this product included nicotinates (methyl and benzyl), fatty acids (oleic acid, undecanioic acid, lauric acid), fatty alcohols (octanol and nonanol), terpenes (menthol, limonene, and menthone), and polyols (polyethylene glycol, propylene glycol, and glycerol). In an early trial, a binary enhancer system of methylnicotinate and propylene glycol was used but the inventor observed that the methylnicotinate crystallized after about 3-4 months in the patch.

Data set [2] concerns skin. Briefly: permeation enhancement of vitamin B12 from the patch. As to conditions: in conjunction with propylene glycol.
Text: as §1

The nature of data set [3]: early trial of patch with binary enhancer system: crystallization of enhancer in the patch on storage. It is filed as physicochemical. As to conditions: binary enhancer system of methylnicotinate and propylene glycol in vitamin B12 patch.
Text: as §1

This is an account of results in patent publication US9700522B2, “Transdermal patch and method for delivery of vitamin B12” (Vita Sciences LLC, priority 2007, dated 2017).

Structures are written as SMILES.

As for `O=C(OCc1ccccc1)c1cccnc1` [benzylnicotinate], in data set [1], the skin irritation result was “severe and unacceptable skin irritation”.

Turning to `CC(C)[C@@H]1CC[C@@H](C)CC1=O` [menthone], in data set [2], the permeation enhancer performance result is reported as “excellent permeation enhancer”.

On to `COC(=O)c1cccnc1` [methylnicotinate], for which, in data set [3], the “time after which the enhancer crystallized in the patch” value is listed as 3-4 months.
